Here are results for 15 compounds from patent EP3436445B1, “HISTONE DEMETHYLASE INHIBITORS” (Celgene Quanticel Research, Inc., priority 2016, dated 2017).

The target of one experiment is T1, JMJD2C (Homo sapiens, UniProt Q9H3R0).
T1 construct: purchased BPS Bioscience 50105
T1 sequence (Q9H3R0 2-372): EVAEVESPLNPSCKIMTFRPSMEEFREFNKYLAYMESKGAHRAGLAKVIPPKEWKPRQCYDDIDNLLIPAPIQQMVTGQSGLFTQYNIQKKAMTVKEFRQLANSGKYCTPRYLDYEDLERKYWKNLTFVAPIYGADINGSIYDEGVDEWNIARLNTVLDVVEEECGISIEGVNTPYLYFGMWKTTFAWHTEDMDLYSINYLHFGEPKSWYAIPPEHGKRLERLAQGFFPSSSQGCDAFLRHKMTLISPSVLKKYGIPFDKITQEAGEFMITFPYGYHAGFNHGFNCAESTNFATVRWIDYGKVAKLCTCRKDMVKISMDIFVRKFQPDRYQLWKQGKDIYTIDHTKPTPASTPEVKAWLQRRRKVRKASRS
The experiment in a line: JMJD2C in vitro enzyme inhibition assay (TR-FRET). The class given is biochemical. As to conditions: Table 5; 0.3 nM JMJD2C, H3K9me3-biotin labeled peptide. An excerpt:
(§1) This assay determines the ability of a test compound to inhibit Jarid1B, JMJD2C and JMJD3 demethylase activity. Baculovirus expressed Jarid1B (GenBank Accession #NM-006618, AA 2-751) was purchased from BPS Bioscience (Cat #50121) or custom made by MolecularThroughput. Baculovirus expressed JMJD2C (GenBank Accession #BC143571, AA 2-372) was purchased from BPS Bioscience (Cat#50105). Baculovirus expressed JMJD3 (GenBank Accession #NM-001080424, AA1043-end) was purchased from BPS Bioscience (Cat#50115).
The ability of test compounds to inhibit the activity of JMJD2C was determined in 384-well plate format under the following reaction conditions: 0.3 nM JMJD2C, 300 nM H3K9me3-biotin labeled peptide (Anaspec cat #64360), 2 µM alpha-ketoglutaric acid in assay buffer of 50 mM HEPES, pH7.3, 0.005% Brij35, 0.5 mM TCEP, 0.2 mg/ml BSA, 50 µM sodium L-ascorbate, and 2 µM ammonium iron(II) sulfate. Reaction product was determined quantitatively by TR-FRET after the addition of detection reagent Phycolink Streptavidin-allophycocyanin (Prozyme) and Europium-anti-di-methylated histone H3 lysine 9 (H3K9me2) antibody (PerkinElmer) in the presence of 5 mM EDTA in LANCE detection buffer (PerkinElmer) at a final concentration of 50 nM and 1 nM, respectively.
(§2) The assay reaction was initiated by the following: 2 µl of the mixture of 900 nM H3K9me3-biotin labeled peptide and 6 µM alpha-ketoglutaric acid with 2 µl of 11-point serial diluted inhibitor in 3% DMSO were added to each well of the plate, followed by the addition of 2 µl of 0.9 nM JMJD2C to initiate the reaction. The reaction mixture was incubated at room temperature for 30 minutes, and terminated by the addition of 6 µl of 5 mM EDTA in LANCE detection buffer containing 100 nM Phycolink Streptavidin-allophycocyanin and 2 nM Europium-anti-H3K9me2 antibody. Plates were read by EnVisionMultilabel Reader in TR-FRET mode (excitation at 320 nm, emission at 615 nm and 665 nm) after 1 hour incubation at room temperature. A ratio was calculated (665/615) for each well and fitted to determine inhibition constant (IC50).

Another experiment has as its target T2, Jarid1B (Homo sapiens, UniProt Q9UGL1).
T2 construct: purchased BPS Bioscience (or custom made by MolecularThroughput) 50121
T2 sequence (Q9UGL1 2-751): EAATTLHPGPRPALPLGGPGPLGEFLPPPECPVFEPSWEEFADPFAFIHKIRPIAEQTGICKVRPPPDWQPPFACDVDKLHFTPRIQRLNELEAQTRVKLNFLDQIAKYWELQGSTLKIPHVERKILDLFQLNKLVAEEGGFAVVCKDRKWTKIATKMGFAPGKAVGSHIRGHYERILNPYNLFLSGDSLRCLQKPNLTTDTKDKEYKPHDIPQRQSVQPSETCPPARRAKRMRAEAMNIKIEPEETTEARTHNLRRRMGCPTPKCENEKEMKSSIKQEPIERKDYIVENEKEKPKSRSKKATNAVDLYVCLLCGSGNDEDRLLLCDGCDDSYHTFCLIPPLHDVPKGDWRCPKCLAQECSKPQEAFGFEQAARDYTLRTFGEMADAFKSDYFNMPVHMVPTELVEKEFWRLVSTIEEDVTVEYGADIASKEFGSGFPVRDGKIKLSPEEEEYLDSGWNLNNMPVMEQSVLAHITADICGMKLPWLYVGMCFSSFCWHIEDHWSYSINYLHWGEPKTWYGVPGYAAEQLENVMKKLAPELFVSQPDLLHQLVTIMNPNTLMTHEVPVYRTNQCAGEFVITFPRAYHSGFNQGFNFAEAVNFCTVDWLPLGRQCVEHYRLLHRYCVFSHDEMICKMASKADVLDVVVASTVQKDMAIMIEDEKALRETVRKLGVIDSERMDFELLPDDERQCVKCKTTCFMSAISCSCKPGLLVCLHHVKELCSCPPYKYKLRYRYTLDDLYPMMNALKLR
Kind of experiment: Jarid1B in vitro enzyme inhibition assay (TR-FRET). The class given is biochemical. As to conditions: Table 5; 0.8 nM Jarid1B, H3K4me3-biotin labeled peptide; read-out: JARID1B IC5.
Text: as §1
The ability of test compounds to inhibit the activity of Jarid1B was determined in 384-well plate format under the following reaction conditions: 0.8 nM Jarid1B, 300 nM H3K4me3-biotin labeled peptide (Anaspec cat #64357), 2 µM alpha-ketoglutaric acid in assay buffer of 50 mM HEPES, pH7.3, 0.005% Brij35, 0.5 mM TCEP, 0.2 mg/ml BSA, 50 µM sodium L-ascorbate, and 2 µM ammonium iron(II) sulfate. Reaction product was determined quantitatively by TR-FRET after the addition of detection reagent Phycolink Streptavidin-allophycocyanin (Prozyme) and Europium-anti-mono-or di-methylated histone H3 lysine 4 (H3K4me1-2) antibody (PerkinElmer) in the presence of 5 mM EDTA in LANCE detection buffer (PerkinElmer) at a final concentration of 25 nM and 1 nM, respectively.
as §2, with “nM H3K4me3-biotin” for “nM H3K9me3-biotin”, “DMSO was” for “DMSO were”, “of 2.4” for “of 0.9”, “nM Jarid1B” for “nM JMJD2C”, “containing 50” for “containing 100”, “nM Europium-anti-H3K4me1-2” for “nM Europium-anti-H3K9me2”

Molecules are shown by their SMILES.

On to `O=C(c1ccccc1)N1CCC[C@H](n2cnc(-c3cc(-c4nn[nH]c4C(F)(F)F)ccn3)c2)C1` [Example 90, 2-{1-[(3S)-1-benzoylpiperidin-3-yl]-1H-imidazol-4-yl}-4-[5-(trifluoromethyl)-1H-1,2,3-triazol-4-yl]pyridine], for which the IC50 on JMJD2C was more than 10000 nM; on Jarid1B, not above 100 nM.
As to `Cc1ccc(CCn2cnc(-c3cc(-c4nn[nH]c4C(F)(F)F)ccn3)c2)cc1` [Example 91, 2-{1-[2-(4-methylphenyl)ethyl]-1H-imidazol-4-yl}-4-[5-(trifluoromethyl)-1H-1,2,3-triazol-4-yl]pyridine], the results for the IC50 against JMJD2C and on Jarid1B were more than 10000 nM and 100 to 1000 nM, respectively.
For `FC(F)(F)c1[nH]nnc1-c1ccnc(-c2cn(CCc3ccc(Cl)cc3)cn2)c1` [Example 92, 2-{1-[2-(4-chlorophenyl)ethyl]-1H-imidazol-4-yl}-4-[5-(trifluoromethyl)-1H-1,2,3-triazol-4-yl]pyridine], the values for the IC50 against JMJD2C and on Jarid1B were more than 10000 nM and 100 to 1000 nM, respectively.
The corresponding values for `COc1ccc(CCn2cnc(-c3cc(-c4nn[nH]c4C(F)(F)F)ccn3)c2)cc1` [Example 93, 2-{1-[2-(4-methoxyphenyl)ethyl]-1H-imidazol-4-yl}-4-[5-(trifluoromethyl)-1H-1,2,3-triazol-4-yl]pyridine] are more than 10000 nM and not above 100 nM.
Regarding `FC(F)(F)c1ccc(CCn2cnc(-c3cc(-c4nn[nH]c4C(F)(F)F)ccn3)c2)cc1` [Example 94, 4-[5-(trifluoromethyl)-1H-1,2,3-triazol-4-yl]-2-(1-{2-[4-(trifluoromethyl)phenyl]ethyl}-1H-imidazol-4-yl)pyridine], the IC50 against JMJD2C was more than 10000 nM; on Jarid1B, 100 to 1000 nM.
The corresponding values for `CCc1ccc(CCn2cnc(-c3cc(-c4nn[nH]c4C(F)(F)F)ccn3)c2)cc1` [Example 95, 2-{1-[2-(4-ethylphenyl)ethyl]-1H-imidazol-4-yl}-4-[5-(trifluoromethyl)-1H-1,2,3-triazol-4-yl]pyridine] are more than 10000 nM and 100 to 1000 nM.
The like results for `CC(C)(C)c1ccc(CCn2cnc(-c3cc(-c4nn[nH]c4C(F)(F)F)ccn3)c2)cc1` [Example 96, 2-{1-[2-(4-tert-butylphenyl)ethyl]-1H-imidazol-4-yl}-4-[5-(trifluoromethyl)-1H-1,2,3-triazol-4-yl]pyridine] were, in that order, more than 10000 nM and 100 to 1000 nM.
`Cn1cnc(-c2cc(-c3nn[nH]c3C(F)(F)F)ccn2)c1-c1ccc(F)cc1` [Example 97, 2-[5-(4-fluorophenyl)-1-methyl-1H-imidazol-4-yl]-4-[5-(trifluoromethyl)-1H-1,2,3-triazol-4-yl]pyridine]: the IC50 at JMJD2C is more than 10000 nM; on Jarid1B it was not above 100 nM.
For the compound `FC(F)(F)c1[nH]nnc1-c1ccnc(-c2cn(CC3CCOc4ccccc43)cn2)c1` (stereo not drawn) [Example 98, 2-{1-[(3,4-dihydro-2H-1-benzopyran-4-yl)methyl]-1H-imidazol-4-yl}-4-[5-(trifluoromethyl)-1H-1,2,3-triazol-4-yl]pyridine], the IC50 at JMJD2C is more than 10000 nM; at Jarid1B, not above 100 nM.
The like results for `Fc1ccc2c(c1)CCCC2Cn1cnc(-c2cc(-c3nn[nH]c3C(F)(F)F)ccn2)c1` (stereo not drawn) [Example 100, 2-{1-[(6-fluoro-1,2,3,4-tetrahydronaphthalen-1-yl)methyl]-1H-imidazol-4-yl}-4-[5-(trifluoromethyl)-1H-1,2,3-triazol-4-yl]pyridine] were, in that order, more than 10000 nM and not above 100 nM.
On to `Fc1ccc2c(c1)C(Cn1cnc(-c3cc(-c4nn[nH]c4C(F)(F)F)ccn3)c1)CCC2` (stereo not drawn) [Example 101, 2-{1-[(7-fluoro-1,2,3,4-tetrahydronaphthalen-1-yl)methyl]-1H-imidazol-4-yl}-4-[5-(trifluoromethyl)-1H-1,2,3-triazol-4-yl]pyridine], for which the values for the IC50 against JMJD2C and on Jarid1B were more than 10000 nM and not above 100 nM, respectively.
`Cc1ccc2c(c1)CCCC2Cn1cnc(-c2cc(-c3nn[nH]c3C(F)(F)F)ccn2)c1` (stereo not drawn) [Example 102, 2-{1-[(6-methyl-1,2,3,4-tetrahydronaphthalen-1-yl)methyl]-1H-imidazol-4-yl}-4-[5-(trifluoromethyl)-1H-1,2,3-triazol-4-yl]pyridine]: the IC50 was more than 10000 nM on JMJD2C and 100 to 1000 nM at Jarid1B.
The like results for `Cc1ccc2c(c1)C(Cn1cnc(-c3cc(-c4nn[nH]c4C(F)(F)F)ccn3)c1)CCC2` (stereo not drawn) [Example 103, 2-{1-[(7-methyl-1,2,3,4-tetrahydronaphthalen-1-yl)methyl]-1H-imidazol-4-yl}-4-[5-(trifluoromethyl)-1H-1,2,3-triazol-4-yl]pyridine] were, in that order, more than 10000 nM and not above 100 nM.
As to `COc1cccc2c1CCCC2Cn1cnc(-c2cc(-c3nn[nH]c3C(F)(F)F)ccn2)c1` (stereo not drawn) [Example 104, 2-{1-[(5-methoxy-1,2,3,4-tetrahydronaphthalen-1-yl)methyl]-1H-imidazol-4-yl}-4-[5-(trifluoromethyl)-1H-1,2,3-triazol-4-yl]pyridine], the IC50 was more than 10000 nM at JMJD2C and 100 to 1000 nM on Jarid1B.
With `COc1ccc2c(c1)CCCC2Cn1cnc(-c2cc(-c3nn[nH]c3C(F)(F)F)ccn2)c1` (stereo not drawn) [Example 105, 2-{1-[(6-methoxy-1,2,3,4-tetrahydronaphthalen-1-yl)methyl]-1H-imidazol-4-yl}-4-[5-(trifluoromethyl)-1H-1,2,3-triazol-4-yl]pyridine], the IC50 against JMJD2C is more than 10000 nM; on Jarid1B it was 100 to 1000 nM.
